Test results taken from ChEMBL document CHEMBL1121678, “Antitumor agents. 44. Bis(helenalinyl) esters and related derivatives as novel potent antileukemic agents” (1981).

Tests used:
Type in all cases: functional
Mus musculus [1] = test: Antileukemic activity of compound against the P-388 lymphocytic leukemic BDF1 male mice at 25(mg/kg)/day, administered intraperitoneally; 17.2/9.66 (Treated/control)
Mus musculus [2] = test: Antileukemic activity of compound against the P-388 lymphocytic leukemic BDF1 male mice at 4(mg/kg)/day, administered intraperitoneally; 10.6/9.66 (Treated/control)
Mus musculus [3] = test: Antileukemic activity of compound against the P-388 lymphocytic leukemic BDF1 male mice at 2(mg/kg)/day, administered intraperitoneally; 11.2/9.66 (Treated/control)
Mus musculus [4] = test: Antileukemic activity of compound against the P-388 lymphocytic leukemic BDF1 male mice at 8(mg/kg)/day, administered intraperitoneally; 13.7/9.66 (Treated/control)
Mus musculus [5] = test: Antileukemic activity of compound against the P-388 lymphocytic leukemic BDF1 male mice at 50(mg/kg)/day, administered intraperitoneally; 13.4/9.66 (Treated/control)
Mus musculus [6] = test: Antileukemic activity of compound against the P-388 lymphocytic leukemic BDF1 male mice at 12.5 mg/kg/day, administered intraperitoneally; 16.0/9.66 (Treated/control); settings: route intraperitoneal
Mus musculus [7] = test: In vivo antileukemic activity against P-388 lymphocytic leukemia in BDF1 male mice at 4(mg/kg)/day intraperitoneal dose expressed as T/C
Mus musculus [8] = test: In vivo antileukemic activity against P-388 lymphocytic leukemia in BDF1 male mice at 50(mg/kg)/day intraperitoneal dose expressed as T/C
Mus musculus [9] = test: In vivo antileukemic activity against P-388 lymphocytic leukemia in BDF1 male mice at 8(mg/kg)/day intraperitoneal dose expressed as T/C
Mus musculus [10] = test: In vivo antileukemic activity against P-388 lymphocytic leukemia in BDF1 male mice at 12.5 mg/kg/day intraperitoneal dose expressed as T/C
Mus musculus [11] = test: In vivo antileukemic activity against P-388 lymphocytic leukemia in BDF1 male mice at 2(mg/kg)/day intraperitoneal dose expressed as T/C
Mus musculus [12] = test: In vivo antileukemic activity against P-388 lymphocytic leukemia in BDF1 male mice at 25(mg/kg)/day intraperitoneal dose expressed as T/C
Mus musculus [13] = test: Antileukemic activity of compound against the P-388 lymphocytic leukemic BDF1 male mice at 30(mg/kg)/day, administered intraperitoneally; 6.7/9.66 (Treated/control)
Mus musculus [14] = test: Antileukemic activity of compound against the P-388 lymphocytic leukemic BDF1 male mice at 4(mg/kg)/day, administered intraperitoneally; 16.2/9.66 (Treated/control)
Mus musculus [15] = test: Antileukemic activity of compound against the P-388 lymphocytic leukemic BDF1 male mice at 2(mg/kg)/day, administered intraperitoneally; 14.5/9.66 (Treated/control)
Mus musculus [16] = test: Antileukemic activity of compound against the P-388 lymphocytic leukemic BDF1 male mice at 15(mg/kg)/day, administered intraperitoneally; 9.8/9.66 (Treated/control)
Mus musculus [17] = test: Antileukemic activity of compound against the P-388 lymphocytic leukemic BDF1 male mice at 60 mg/kg/day, administered intraperitoneally; 3.8/9.66 (Treated/control); settings: route intraperitoneal
Mus musculus [18] = test: Antileukemic activity of compound against the P-388 lymphocytic leukemic BDF1 male mice at 8(mg/kg)/day, administered intraperitoneally; 16.7/9.66 (Treated/control)
Mus musculus [19] = test: In vivo antileukemic activity against P-388 lymphocytic leukemia in BDF1 male mice at 60 mg/kg/day intraperitoneal dose expressed as T/C
Mus musculus [20] = test: In vivo antileukemic activity against P-388 lymphocytic leukemia in BDF1 male mice at 15(mg/kg)/day intraperitoneal dose expressed as T/C
Mus musculus [21] = test: In vivo antileukemic activity against P-388 lymphocytic leukemia in BDF1 male mice at 30(mg/kg)/day intraperitoneal dose expressed as T/C
Mus musculus [22] = test: Antileukemic activity of compound against the P-388 lymphocytic leukemic BDF1 male mice at 25(mg/kg)/day, administered intraperitoneally; 18.0/9.66 (Treated/control)
Mus musculus [23] = test: Antileukemic activity of compound against the P-388 lymphocytic leukemic BDF1 male mice at 8(mg/kg)/day, administered intraperitoneally; 11.9/9.66 (Treated/control)
Mus musculus [24] = test: Antileukemic activity of compound against the P-388 lymphocytic leukemic BDF1 male mice at 15(mg/kg)/day, administered intraperitoneally; 10.8/9.66 (Treated/control)
Mus musculus [25] = test: Antileukemic activity of compound against the P-388 lymphocytic leukemic BDF1 male mice at 12(mg/kg)/day, administered intraperitoneally; 10.8/9.66 (Treated/control)
Mus musculus [26] = test: In vivo antileukemic activity against P-388 lymphocytic leukemia in BDF1 male mice at 12(mg/kg)/day intraperitoneal dose expressed as T/C
Mus musculus [27] = test: Antileukemic activity of compound against the P-388 lymphocytic leukemic BDF1 male mice at 8(mg/kg)/day, administered intraperitoneally; 10.5/9.66 (Treated/control)

## C=C1C(=O)O[C@@H]2C[C@@H](C)[C@@H]3C=CC(=O)[C@@]3(C)[C@@H](OC(=O)CCC(=O)O[C@H]3[C@@H]4C(=C)C(=O)O[C@@H]4C[C@@H](C)[C@@H]4C=CC(=O)[C@]43C)[C@H]12
Mus musculus [1]
  Average survival (days): 17.2
Mus musculus [2]
  Average survival (days): 10.6
Mus musculus [3]
  Average survival (days): 11.2
Mus musculus [4]
  Average survival (days): 13.7
Mus musculus [5]
  Average survival (days): 13.4
Mus musculus [6]
  Average survival (days): 16
Mus musculus [7]
  T/C: 110%
Mus musculus [8]
  T/C: 140%
Mus musculus [9]
  T/C: 168%
Mus musculus [10]
  T/C: 166%
Mus musculus [11]
  T/C: 116%
Mus musculus [12]
  T/C: 178%

## C=C1C(=O)O[C@@H]2C[C@@H](C)[C@@H]3C=CC(=O)[C@@]3(C)[C@@H](OC(=O)CCCCC(=O)O[C@H]3[C@@H]4C(=C)C(=O)O[C@@H]4C[C@@H](C)[C@@H]4C=CC(=O)[C@]43C)[C@H]12
Mus musculus [13]
  Average survival (days): 6.7
Mus musculus [14]
  Average survival (days): 16.2
Mus musculus [15]
  Average survival (days): 14.5
Mus musculus [16]
  Average survival (days): 9.8
Mus musculus [17]
  Average survival (days): 3.8
Mus musculus [18]
  Average survival (days): 16.7
Mus musculus [7]
  T/C: 167%
Mus musculus [19]
  T/C: 40%
Mus musculus [9]
  T/C: 173%
Mus musculus [20]
  T/C: 101%
Mus musculus [11]
  T/C: 150%
Mus musculus [21]
  T/C: 69%

## O=c1[nH]cc(F)c(=O)[nH]1 [FLUOROURACIL]
Mus musculus [22]
  Average survival (days): 18
Mus musculus [19]
  T/C: 186%

## C[C@@H]1C[C@H]2OC(=O)[C@@H](C)[C@H]2[C@H](OC(=O)CC(=O)O[C@H]2[C@@H]3[C@H](C)C(=O)O[C@@H]3C[C@@H](C)[C@@H]3C=CC(=O)[C@]32C)[C@]2(C)C(=O)C=C[C@@H]12
Mus musculus [23]
  Average survival (days): 11.9
Mus musculus [24]
  Average survival (days): 10.8
Mus musculus [25]
  Average survival (days): 10.8
Mus musculus [9]
  T/C: 124%
Mus musculus [26]
  T/C: 112%
Mus musculus [20]
  T/C: 112%

## CC1C(=O)O[C@@H]2C[C@@H](C)[C@@H]3CCC(=O)[C@@]3(C)[C@@H](O)[C@H]12 (some centres undefined)
Mus musculus [27]
  Average survival (days): 10.5
Mus musculus [19]
  T/C: 109%
